In patent US20100298141A1, “SUBSTITUTED PYRIDINE N-OXIDE HERBICIDES” (E. I. DU PONT DE NEMOURS AND COMPANY, priority 2007, published 2010):

Key:
Goosegrass = experiment: Test C pre-/postemergence test; assay type: in vivo, Eleusin indica
Outline: (§1)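 Compounds in a non-phytotoxic solvent with surfactant applied preemergence to seeded pots and, at the same time, postemergence to plants 2–18 cm tall (1- to 4-leaf stage). Paddy tests: pots flooded to 3 cm, compound applied into the water, depth held throughout.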

cocklebur = experiment: Test C pre-/postemergence test; assay type: in vivo, Xanthium strumarium
Outline: as §1

Surinam grass = experiment: Test C pre-/postemergence test; assay type: in vivo, Brachiaria decumbens
Outline: as §1

crabgrass [1] = experiment: Test C pre-/postemergence test; assay type: in vivo, Digitaria sanguinalis
Outline: as §1

bermudagrass = experiment: Test C pre-/postemergence test; assay type: in vivo, Cynodon dactylon
Outline: as §1

[2] = system: common (oilseed) sunflower; experiment: Test C pre-/postemergence test; assay type: in vivo, Helianthus annuus
Outline: as §1

lambsquarters = experiment: Test C pre-/postemergence test; assay type: in vivo, Chenopodium album
Outline: as §1

soybean = experiment: Test C pre-/postemergence test; assay type: in vivo, Glycine max
Outline: as §1

morningglory = experiment: Test A pre-/postemergence greenhouse test; assay type: in vivo, Ipomoea spp.; settings: for Morningglory plant response rating: 0 to 100 scale
Outline: (§2)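 Untreated controls served as the reference for visual injury ratings taken about ten days after spraying. The non-phytotoxic solvent/surfactant formulation was applied preemergence to seeded loam and sand and postemergence to plants two to ten cm high.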

giant foxtail = experiment: Test A pre-/postemergence greenhouse test; assay type: in vivo, Setaria faberi; settings: for Foxtail, Giant plant response rating: 0 to 100 scale
Outline: as §2

Italian ryegrass = experiment: Test C pre-/postemergence test; assay type: in vivo, Lolium multiflorum
Outline: as §1

kochia = experiment: Test C pre-/postemergence test; assay type: in vivo, Kochia scoparia
Outline: as §1

crabgrass [3] = experiment: Test A pre-/postemergence greenhouse test; assay type: in vivo, Digitaria sanguinalis; settings: for Crabgrass, Large plant response rating: 0 to 100 scale
Outline: as §2

barnyardgrass [4] = experiment: Test A pre-/postemergence greenhouse test; assay type: in vivo, Echinochloa crus-galli; settings: for Barnyardgrass plant response rating: 0 to 100 scale
Outline: as §2

umbrella sedge = experiment: Test C flooded paddy test; assay type: in vivo, Cyperus difformis; settings: Flood
Outline: (§3)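 Test compounds are applied straight into paddy water held 3 cm above the soil surface, with that flood maintained for the whole test. After 13 to 15 days in the greenhouse, each species is scored visually relative to controls.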

barnyardgrass [5] = experiment: Test C flooded paddy test; assay type: in vivo, Echinochloa crus-galli; settings: Flood
Outline: as §3

pigweed = experiment: Test C pre-/postemergence test; assay type: in vivo, Amaranthus retroflexus
Outline: as §1

[6] = 31 g ai/ha, Preemergence, scale 0 to 100
[7] = preemergence, 125 g ai/ha, scale 0 (no effect) to 100 (complete control)
[8] = Postemergence, 125 g ai/ha, 0 is no effect, 100 is complete control
[9] = Postemergence, 500 g ai/ha, 0 is no effect, 100 is complete control
[10] = Preemergence, 125 g ai/ha, 0 no effect, 100 complete control
[11] = Preemergence, 500 g ai/ha, 0 to 100 scale where 0 is no effect and 100 is complete control
[12] = 31 g ai/ha, scale 0 to 100 (0 no effect, 100 complete control)
[13] = 62 g ai/ha, scale 0 to 100, 0 no effect, 100 complete control, 13 to 15 days
[14] = 125 g ai/ha, scale 0 to 100, 0 no effect, 100 complete control, 13 to 15 days
[15] = 250 g ai/ha, scale 0 to 100 (0 no effect, 100 complete control)

Cn1nc(C(F)(F)F)c(CS(=O)(=O)c2cccc[n+]2[O-])c1Cl [Compound 9]
Goosegrass plant response rating (Goosegrass; [6]): 100 | Plant response rating (0 to 100), Goosegrass (Goosegrass; Preemergence, 250 g ai/ha): 100 | Goosegrass plant response rating (Goosegrass; [7]): 100 | Cocklebur plant response rating (cocklebur; [6]): 0 | Plant response rating (0 to 100), Cocklebur (cocklebur; Preemergence, 250 g ai/ha): 0 | Cocklebur plant response rating (cocklebur; [7]): 0 | Plant response rating (0 to 100), Surinam Grass (Surinam grass; Preemergence, 250 g ai/ha): 100 | Surinam Grass plant response rating (Surinam grass; [7]): 85 | Crabgrass, Large plant response rating (crabgrass [1]; [6]): 100 | Plant response rating (0 to 100), Crabgrass, Large (crabgrass [1]; Preemergence, 250 g ai/ha): 100 | Crabgrass, Large plant response rating (crabgrass [1]; [7]): 100 | Bermudagrass plant response rating (bermudagrass; [6]): 98 | Plant response rating (0 to 100), Bermudagrass (bermudagrass; Preemergence, 250 g ai/ha): 100 | Bermudagrass plant response rating (bermudagrass; [7]): 100 | Plant response rating (0 to 100), Sunflower ([2]; Preemergence, 250 g ai/ha): 70 | Sunflower plant response rating [2, 7]: 5 | Lambsquarters plant response rating (lambsquarters; [6]): 0 | Plant response rating (0 to 100), Lambsquarters (lambsquarters; Preemergence, 250 g ai/ha): 100 | Lambsquarters plant response rating (lambsquarters; [7]): 80 | Soybean plant response rating (soybean; [6]): 10 | Plant response rating (0 to 100), Soybean (soybean; Preemergence, 250 g ai/ha): 45 | Soybean plant response rating (soybean; [7]): 40 | Morningglory plant response rating (morningglory; [8]): 20 | Morningglory plant response rating (morningglory; [9]): 70 | Morningglory plant response rating (morningglory; [10]): 40 | Plant response rating, Morningglory (morningglory; [11]): 70 | Foxtail, Giant plant response rating (giant foxtail; [8]): 90 | Foxtail, Giant plant response rating (giant foxtail; [9]): 90 | Foxtail, Giant plant response rating (giant foxtail; [10]): 100 | Plant response rating, Foxtail, Giant (giant foxtail; [11]): 100 | Ryegrass, Italian plant response rating (Italian ryegrass; [6]): 0 | Ryegrass, Italian plant response rating (Italian ryegrass; 62 g ai/ha, preemergence, scale 0 (no effect) to 100 (complete control)): 50 | Plant response rating (0 to 100), Ryegrass, Italian (Italian ryegrass; Preemergence, 250 g ai/ha): 65 | Ryegrass, Italian plant response rating (Italian ryegrass; [7]): 65 | Kochia plant response rating (kochia; [6]): 0 | Plant response rating (0 to 100), Kochia (kochia; Preemergence, 250 g ai/ha): 100 | Kochia plant response rating (kochia; [7]): 100 | Crabgrass, Large plant response rating (crabgrass [3]; [8]): 80 | Crabgrass, Large plant response rating (crabgrass [3]; [9]): 90 | Crabgrass, Large plant response rating (crabgrass [3]; [10]): 100 | Plant response rating, Crabgrass, Large (crabgrass [3]; [11]): 100 | Barnyardgrass plant response rating (barnyardgrass [4]; [8]): 80 | Barnyardgrass plant response rating (barnyardgrass [4]; [9]): 80 | Barnyardgrass plant response rating (barnyardgrass [4]; [10]): 100 | Plant response rating, Barnyardgrass (barnyardgrass [4]; [11]): 100 | Plant response rating, Sedge, Umbrella (umbrella sedge; [12]): 0 | Plant response rating, Sedge, Umbrella (umbrella sedge; [13]): 85 | Plant response rating, Sedge, Umbrella (umbrella sedge; [14]): 90 | Plant response rating, Sedge, Umbrella (umbrella sedge; [15]): 100 | Plant response rating, Barnyardgrass (barnyardgrass [5]; [12]): 0 | Plant response rating, Barnyardgrass (barnyardgrass [5]; [13]): 60 | Plant response rating, Barnyardgrass (barnyardgrass [5]; [14]): 85 | Plant response rating, Barnyardgrass (barnyardgrass [5]; [15]): 90 | Pigweed plant response rating (pigweed; [6]): 100 | Plant response rating (0 to 100), Pigweed (pigweed; Preemergence, 250 g ai/ha): 100 | Pigweed plant response rating (pigweed; [7]): 100
